Test results as given in PubChem BioAssay AID2286 (Southern Research Specialized Biocontainment Screening …, 2010).
Active and inactive are the calls of the source.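 The calls were made as follows: active = minimum cell viability of 80% or lower across the dose range, counted as toxic; inactive = minimum cell viability above 80%.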

How the values were obtained:
[1] = MAGI-CCR5 and HeLa-R5-16 cytotoxicity, dose response, cytotoxicity control for HIV-1 fusion inhibitor project, cell-based, MAGI and MAGI-HeLa co-culture (AID 2286); conditions: MAGI-CCR5 cells viability, CellTiter-Glo ATP luminescence; for minimum viability: measured here: MAGI minimum viability across doses;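 as to all read-outs here: cells exposed to compound for at least 64 h before ATP readout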;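 as to minimum viability: 100% = median of DMSO vehicle wells with no ATP signal meaning 0%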;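 as to viability: 100% = median of DMSO vehicle wells with no ATP signal meaning 0%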
[2] = tested on: MAGI-CCR5 cells viability, CellTiter-Glo ATP luminescence; test: as above
[3] = MAGI-HeLa co-culture viability, at 50 µM, stronger effect = lower value
[4] = measured here: MAGI + HeLa-R5-16 co-culture viability
[5] = at 3.13 µM, stronger effect = lower value
[6] = at 1.56 µM, stronger effect = lower value
[7] = at 12.5 µM, stronger effect = lower value

Structure (SMILES) | viability [1, 3] | minimum viability ([1]; at 50 µM, stronger effect = lower value) | CC50 [2] | CC50 [2, 4] | viability ([1]; at 50 µM (top of the series)) | minimum viability [1, 5] | minimum viability ([1]; at 25 µM, stronger effect = lower value) | viability ([1]; at 25 µM (top of the series)) | minimum viability [1, 6] | minimum viability [1, 7]
Cc1ccc(C)c(S(=O)(=O)/N=C2\C=C(NS(=O)(=O)c3ccccc3)C(=O)c3ccccc32)c1 | 52.8% | 40.6% | 43.1 µM | > 50 µM | – | – | – | – | – | –
O=C(NN1C(=O)/C(=C/c2ccc(O)c([N+](=O)[O-])c2)SC1=S)c1ccccc1Cl | 76.4% | 67.5% | – | > 50 µM | – | – | – | – | – | –
O=C1/C(=C\c2ccc(O)c(O)c2)C(c2ccccc2)=NN1c1ccccc1 | 34.7% | 28.1% | 38.4 µM | 48.7 µM | – | – | – | – | – | –
O=C(O)c1cccc2c1NC(c1cccc([N+](=O)[O-])c1)C1CC(Sc3ccccc3[N+](=O)[O-])C(Cl)C21 (centres undefined) | 48.4% | 53.6% | – | 47.9 µM | – | – | – | – | – | –
CCOc1cc(/C=C2/C(=N)N3C(=NC2=O)SN=C3S(C)(=O)=O)ccc1OS(=O)(=O)c1ccccc1 | 68.9% | 81.5% | – | > 50 µM | 81.5% (inactive) | – | – | – | – | –
CCOC(=O)c1sc2nc3c(SCCC(=O)O)cc(C(=O)c4cc(OC)ccc4O)cn3c(=O)c2c1C | 65.6% | 68.7% | – | > 50 µM | – | – | – | – | – | –
O=c1cc(-c2ccccc2Cl)oc2c(NS(=O)(=O)c3cc(Cl)cc(Cl)c3O)ccc(O)c12 | 20.8% | 16.3% | 5.61 µM | 15.6 µM | – | – | – | – | – | –
O=[N+]([O-])c1cc(Cl)cc(/C=N/NC(=S)Nc2ccc(S(=O)(=O)N3CCOCC3)cc2)c1O | 65.6% | – | – | > 50 µM | 98.8% (inactive) | 89.3% | – | – | – | –
O=[N+]([O-])c1cc([N+](=O)[O-])c2oc(-c3ccccc3)c(Br)c2c1O | 57.6% | 34.5% | 22.5 µM | > 50 µM | – | – | – | – | – | –
O=C(NN1C(=O)/C(=C\c2ccc(O)c([N+](=O)[O-])c2)SC1=S)c1ccccc1Cl | 69.9% | 62.8% | – | > 50 µM | – | – | – | – | – | –
Cc1ccccc1C(=O)Nc1cccc(C(=O)N/N=C/c2cc(Cl)cc([N+](=O)[O-])c2O)c1 | 68.4% | 52.8% | – | > 50 µM | – | – | – | – | – | –
Cc1c2c(=O)n(-c3nc4ccccc4s3)nc-2cc(O)n1Cc1ccccc1 | 49.2% | 42.5% | 33.2 µM | > 50 µM | – | – | – | – | – | –
CSc1nnc(-c2ccccc2N=Cc2c(C)[nH]n(-c3ccc4ccccc4c3)c2=O)c(=O)[nH]1 | 55.5% | 53.7% | – | > 50 µM | – | – | – | – | – | –
Nc1c(S(=O)(=O)O)cc(NC(=O)c2ccccc2)c2c1C(=O)c1ccccc1C2=O | 50.2% | – | – | 49.2 µM | 103% (inactive) | – | 89.2% | – | – | –
O=C(N/N=C/c1ccc(-c2ccc(S(=O)(=O)Nc3ncccn3)cc2)o1)c1cc2ccccc2cc1O | 30.7% | 16.4% | 15.8 µM | 32.6 µM | – | – | – | – | – | –
O=C(Nc1ccc(Oc2ccc(Cl)cc2)c(Cl)c1)c1cc(I)cc(I)c1O | 11.8% | 10.4% | 13.6 µM | 25.2 µM | – | – | – | – | – | –
COc1ccc(C(=O)/C=C/c2ccc(-c3ccccc3)cc2)cc1CSCC(=O)O | 5.69% | 3.11% | 13 µM | 23.2 µM | – | – | – | – | – | –
O=C(O)c1cccc(NC(=S)N/N=C/c2ccccc2OCc2cccc(Br)c2)c1 | 28.4% | 9.27% | 22.3 µM | 23.9 µM | – | – | – | – | – | –
CSc1nc(SCC(=O)O)c2sc3nc(-c4ccccc4)c4c(c3c2n1)CCC4 | 70.5% | – | – | > 50 µM | – | – | – | 99.5% (inactive) | 88.2% | –
COc1ccc2c(c1)cc(C(=O)N/N=C/c1c(O)c(C(=O)O)cc3ccccc13)n2C | 75.1% | – | – | > 50 µM | 95.6% (inactive) | – | – | – | 89.5% | –
CCc1ccc(S(=O)(=O)/N=C2\C=C(NS(=O)(=O)c3ccccc3)C(=O)c3ccccc32)cc1 | 80% | 74.4% | – | > 50 µM | – | – | – | – | – | –
O=C1NC(=Nc2ccccc2Cl)S/C1=C\c1cccc([N+](=O)[O-])c1O | 73.6% | 72.6% | – | > 50 µM | – | – | – | – | – | –
COCCN1C(=O)/C(=C/c2ccc(OCc3ccc(C(=O)O)cc3)c(OC)c2)SC1=Nc1ccccc1 | 44.3% | 41.3% | 33.8 µM | 35.4 µM | – | – | – | – | – | –
CC(C)(C)c1ccc(OCC(=O)NNC(=S)NC(=O)c2ccccc2[N+](=O)[O-])c(Br)c1 | 67.6% | 71% | – | > 50 µM | – | – | – | – | – | –
O=C(N/N=C/c1cc(Cl)cc([N+](=O)[O-])c1O)NC12CC3CC(CC(C3)C1)C2 | 55.7% | 49.2% | 48.7 µM | > 50 µM | – | – | – | – | – | –
C/C(=N\Nc1ccc(C(=O)O)cc1)c1ccc2c(c1)Nc1ccccc1S2 | 52.7% | 47.2% | 46.2 µM | 26.2 µM | – | – | – | – | – | –

Structure (SMILES) | viability [1, 3] | minimum viability ([1]; at 50 µM, stronger effect = lower value) | CC50 [2] | CC50 [2, 4] | viability ([1]; at 50 µM (top of the series)) | minimum viability [1, 5] | minimum viability ([1]; at 25 µM, stronger effect = lower value) | viability ([1]; at 25 µM (top of the series)) | minimum viability [1, 6] | minimum viability [1, 7]
O=C(Nc1ccccc1Cc1ccccc1)c1ccccc1NS(=O)(=O)c1ccc(Cl)s1 | 26.2% | – | 1.68 µM | 5.85 µM | – | – | – | – | – | 15.3%
CCn1nc([N+](=O)[O-])c(C(C#N)c2nc3cc(C(F)(F)F)ccc3s2)c(Cl)c1=O (centres undefined) | – | 22.2% | 27.8 µM | – | – | – | – | – | – | –
COc1ccc(-c2nn(-c3ccccc3)cc2/C=C2/SC(=S)N(CCCC(=O)O)C2=O)c(C)c1 | 68.8% | 57% | – | > 50 µM | – | – | – | – | – | –
CCCOc1cccc(C2C(C(=O)c3cc4ccccc4o3)=C(O)C(=O)N2c2cc(C)on2)c1 (centres undefined) | 90.1% | 49.1% | 49.8 µM | – | – | – | – | – | – | –
CCC(C)(C)C1CCc2c(sc(NC(=O)c3ccccc3C(=O)O)c2C#N)C1 (centres undefined) | 50.7% | 55.5% | – | > 50 µM | – | – | – | – | – | –
COc1ccc(/C=C2/SC(=S)N(CC(=O)O)C2=O)cc1OCc1ccc(Cl)cc1 | 67% | – | – | > 50 µM | 104% (inactive) | 85.8% | – | – | – | –
CN(C)S(=O)(=O)c1cccc(-c2nn(-c3ccccc3)cc2/C=C2\SC(=S)N(CC(=O)O)C2=O)c1 | 74.7% | 68.6% | – | > 50 µM | – | – | – | – | – | –
CCOc1cc(/C=N/N=C2/NC(=O)C(CC(=O)O)S2)ccc1OCc1ccc(Cl)cc1 (centres undefined) | 75.2% | – | – | > 50 µM | 101% (inactive) | – | – | – | – | 85.4%
COc1cc(/C=C2\SC(=O)N(Cc3ccc(F)cc3)C2=O)cc([N+](=O)[O-])c1O | 65.7% | 41.9% | 28.7 µM | > 50 µM | – | – | – | – | – | –
O=C(O)c1cc(-c2ccc(-c3c(-c4ccc5c(c4)OCO5)noc3-c3ccsc3)cc2)nc2ccccc12 | 64.8% | 40.9% | 32.5 µM | > 50 µM | – | – | – | – | – | –
O=C(O)CN1C(=O)/C(=C\c2cc(Br)ccc2OCc2ccc([N+](=O)[O-])cc2)SC1=S | 24.7% | 69.8% | – | 19.9 µM | – | – | – | – | – | –
O=C(O)C1Nc2c(O)cccc2C2C=CCC12 (centres undefined) | 21.6% | 23% | 18.6 µM | 22.4 µM | – | – | – | – | – | –
COc1ccc(-c2nn(-c3ccccc3)cc2/C=C2/SC(=S)N(CCC(=O)O)C2=O)c(C)c1 | 71.9% | 52% | 48.6 µM | > 50 µM | – | – | – | – | – | –
Cc1ccc(-c2nc(SCC(=O)Nc3ccccc3OC(F)F)c3c(C)c(C(=O)O)sc3n2)cc1 | 58% | 36.8% | 36.4 µM | > 50 µM | – | – | – | – | – | –
COc1cc(/C=C2\C(=N)N3N=C(S(C)(=O)=O)SC3=NC2=O)ccc1OCCOc1ccccc1C | 15% | 51.5% | – | 10 µM | – | – | – | – | – | –
O=C(O)c1ccc(N2C(=O)/C(=C/c3ccc(-c4ccc([N+](=O)[O-])cc4)o3)C=C2c2ccccc2)cc1 | 65.7% | – | 35.4 µM | > 50 µM | – | – | 46.8% | – | – | –
O=c1cc(-c2ccccc2)nc2c(-c3ccccc3)c(C(F)(F)F)[nH]n12 | 81.4% | 53.2% | 49.1 µM | – | – | – | – | – | – | –
Cc1cc(Cl)ccc1OC(C)C(=O)Nc1ccc(C(=O)Nc2ccccc2C(=O)O)cc1 (centres undefined) | 63.6% | 49.8% | 48.8 µM | > 50 µM | – | – | – | – | – | –
CC(C)(C)c1ccc(S(=O)(=O)/N=C2\C=C(NS(=O)(=O)c3ccccc3)C(=O)c3ccccc32)cc1 | 51.2% | 51.5% | – | > 50 µM | – | – | – | – | – | –
O=C(NN1C(=O)/C(=C/c2ccc(O)cc2)SC1=S)c1ccccc1O | 36.5% | 27.6% | 26.7 µM | 41.3 µM | – | – | – | – | – | –
COc1cc(/C=C2\SC(=O)N(Cc3ccc(Cl)cc3)C2=O)cc([N+](=O)[O-])c1O | 72.8% | 38.6% | 20.8 µM | > 50 µM | – | – | – | – | – | –
COc1ccc(C(=O)/C=C/c2cccc(OCc3ccccc3)c2)cc1CSCC(=O)O | 13.8% | 5.22% | 28.5 µM | 46.4 µM | – | – | – | – | – | –
O=C(O)c1ccccc1NC(=O)c1ccccc1Nc1ccccc1 | 58.2% | 47.6% | 42.7 µM | > 50 µM | – | – | – | – | – | –
COc1cc([N+](=O)[O-])cc(/C=N/NC(=O)c2cc(-c3ccccc3)nc3ccccc23)c1O | 56.7% | – | – | > 50 µM | – | – | 53.9% | – | – | –
O=C(O)CN1C(=O)/C(=C\c2ccccc2OCc2ccc(Cl)cc2Cl)SC1=S | 67.5% | 84.5% | – | > 50 µM | 84.5% (inactive) | – | – | – | – | –
